Series [1] is described as follows: Methylene blue experiment for H2S release in PBS buffer in presence of cysteine or GSH. Type of series: physicochemical. Conditions: for GSH Peaking time / GSH [H2S] at peaking time / Cys Peaking time / Cys [H2S] at peaking time: PBS buffer pH 7.4, donor 150 μM; for GSH Peaking time / GSH [H2S] at peaking time: 1.5 mM GSH, experimental period 3 hours; for Cys Peaking time / Cys [H2S] at peaking time: 1.5 mM cysteine; for GSH Peaking time (min) / GSH [H2S] at peaking time (μM) / Cys Peaking time (min) / Cys [H2S] at peaking time (μM): footnote a: donors 40 μM and cysteine 4.0 mM. As for the experimental part: Na2S Standard Curve for H2S Release
2.0 mM Na2S stock solution was prepared as described in previous section. Five aliquots of Na2S solution at 3.75 μL, 7.50 μL, 15.0 μL, 45.0 μL, and 112.5 μl were injected into the 4-mL vials containing H2O (1.0 mL), zinc acetate (1% w/v, 100 μL), N,N-dimethyl-1,4-phenylenediamine sulfate (200 μL, 20 mM) in 7.2 M HCl and ferric chloride (200 μL, 30 mM) in 1.2 M HCl, respectively. Stir the resultant solution for 15 minutes at room temperature. The absorbance (670 nm) of aliquots was determined using a UV-Vis spectrometer.
Cysteine stock solution in H2O (400 mM, 112.5 μL) and N-(benzoylthio)benzamide 2 stock solution in THF (40 mM, 112.5 μL) were added into PBS buffer solution (30 mL, pH=7.4) containing EDTA (50 mM, 60 μL), respectively. Every 3 minute, 1.0 mL of aliquots were taken to 4-mL vials containing, zinc acetate (1% w/v, 100 μL), N,N-dimethyl-1,4-phenylenediamine sulfate (200 μL, 20 mM) in 7.2 M HCl and ferric chloride (200 μL, 30 mM) in 1.2 M HCl within 3 hours. Then the absorbance (670 nm) was determined using a UV-Vis spectrometer.
The initial concentrations of H2S-donors shown below were 150 μM and the detection of H2S released from these molecules was measured in presence of 1.5 mM of cysteine or GSH, unless otherwise indicated.

On to `COc1cccc(C(=O)SNC(=O)c2ccccc2)c1` [Compound 10], for which, in series [1], the “GSH Peaking time” value was determined as 20 min, the “GSH [H2S] at peaking time” value came out at 133.6 µM, the “Cys Peaking time” value is 25 min and the “Cys [H2S] at peaking time” value worked out at 111.6 µM.
Consider `CCC(=O)SNC(=O)c1ccccc1` [Compound 20], for which, in series [1], the “GSH Peaking time” value is on record as 35 min, the “GSH [H2S] at peaking time” value was determined as 103.6 µM, the “Cys Peaking time” value turned out to be 28 min and the “Cys [H2S] at peaking time” value was determined as 106.1 µM.
For `COC(=O)C(CSSC(=O)c1ccccc1)NC(=O)c1ccccc1` (centres unmarked) [Compound 33] the same measures were 45 min, 18.3 µM, 35 min and 25.8 µM.
For `O=C(NSC(=O)c1ccccc1)Nc1ccccc1`, in series [1], the “GSH Peaking time” value is on record as 30 min, the “GSH [H2S] at peaking time” value was 23.4 µM, the “Cys Peaking time” value was 15 min and the “Cys [H2S] at peaking time” value turned out to be 33.9 µM.
As to `CC(C(=O)SNC(=O)c1ccccc1)c1ccccc1` (centres unmarked) [Compound 31], in series [1], the “GSH Peaking time” value is recorded as 52 min, the “GSH [H2S] at peaking time” value amounted to 103.8 µM, the “Cys Peaking time” value amounted to 36 min and the “Cys [H2S] at peaking time” value was determined as 130.4 µM.
For `COc1ccc(C(=O)SNC(=O)c2ccccc2)cc1` [Compound 11] the same measures were 40 min, 100.5 µM, 27 min and 92.4 µM.
Regarding `O=C(NSC(=O)c1ccccc1)c1cccc(Cl)c1` [Compound 25], in series [1], the “GSH Peaking time” value was found to be 27 min, the “GSH [H2S] at peaking time” value was 84.3 µM, the “Cys Peaking time” value worked out at 26 min and the “Cys [H2S] at peaking time” value was 83.6 µM.
On to `CC(C)(C)C(=O)SNC(=O)c1ccccc1` [Compound 21], for which, in series [1], the “GSH Peaking time” value is 90 min, the “GSH [H2S] at peaking time” value came to 96.6 µM, the “Cys Peaking time” value worked out at 55 min and the “Cys [H2S] at peaking time” value is 106.4 µM.
Turning to `CC(=O)NSC(=O)c1ccccc1` [Compound 27], in series [1], the “GSH Peaking time” value was 39 min, the “GSH [H2S] at peaking time” value came out at 149.6 µM, the “Cys Peaking time” value was determined as 30 min and the “Cys [H2S] at peaking time” value came out at 145.4 µM.
Regarding `CCC(=O)NSC(=O)c1ccccc1` [Compound 28], in series [1], the “GSH Peaking time” value is given as 50 min, the “GSH [H2S] at peaking time” value was 116.6 µM, the “Cys Peaking time” value is 34 min and the “Cys [H2S] at peaking time” value worked out at 120.9 µM.
On to `O=C(Cc1ccccc1)SNC(=O)c1ccccc1` [Compound 30], for which, in series [1], the “GSH Peaking time” value was 44 min, the “GSH [H2S] at peaking time” value was 104.9 µM, the “Cys Peaking time” value was 30 min and the “Cys [H2S] at peaking time” value was 108.6 µM.
For `Cc1cccc(C(=O)SNC(=O)c2ccccc2)c1` [Compound 7] the same measures were 39 min, 131.0 µM, 28 min and 141.8 µM.
With `CN(C)c1ccc(C(=O)SNC(=O)c2ccccc2)cc1` [Compound 13], in series [1], the “GSH Peaking time (min)” value was 30 ^a min, the “GSH [H2S] at peaking time (μM)” value was 15.0 ^a μM, the “Cys Peaking time (min)” value is reported as 22 ^a min and the “Cys [H2S] at peaking time (μM)” value is recorded as 17.5 ^a μM.
For the compound `CC(=O)SNC(=O)c1ccccc1` [Compound 19], in series [1], the “GSH Peaking time” value is given as 18 min, the “GSH [H2S] at peaking time” value was found to be 116.1 µM, the “Cys Peaking time” value was determined as 12 min and the “Cys [H2S] at peaking time” value amounted to 132.6 µM.
Turning to `COc1ccc(C(=O)SNC(=O)c2ccccc2)c(OC)c1` [Compound 12], in series [1], the “GSH Peaking time (min)” value was 120 ^a min, the “GSH [H2S] at peaking time (μM)” value was 13.2 ^a μM, the “Cys Peaking time (min)” value was 50 ^a min and the “Cys [H2S] at peaking time (μM)” value is 23.0 ^a μM.
`CC(C)C(=O)SNC(=O)c1ccccc1` [Compound 18]: in series [1], the “GSH Peaking time” value is given as 52 min, the “GSH [H2S] at peaking time” value was determined as 101.1 µM, the “Cys Peaking time” value came out at 36 min and the “Cys [H2S] at peaking time” value stood at 131.6 µM.
Turning to `Cc1ccccc1C(=O)SNC(=O)c1ccccc1` [Compound 6], in series [1], the “GSH Peaking time” value is given as 45 min, the “GSH [H2S] at peaking time” value was 61.9 µM, the “Cys Peaking time” value came out at 34 min and the “Cys [H2S] at peaking time” value came out at 85.0 µM.
On to `O=C(NSC(=O)c1ccc(C(F)(F)F)cc1)c1ccccc1` [Compound 4], for which, in series [1], the “GSH Peaking time” value stood at 27 min, the “GSH [H2S] at peaking time” value was found to be 59.5 µM, the “Cys Peaking time” value is 26 min and the “Cys [H2S] at peaking time” value amounted to 110.0 µM.
On the same counts, the results for `CCCC(=O)NSC(=O)c1ccccc1` [Compound 29] are 39 min, 98.9 µM, 30 min and 102.8 µM.
In the case of `Cc1ccc(C(=O)SNC(=O)c2ccccc2)cc1` [Compound 8], in series [1], the “GSH Peaking time” value turned out to be 30 min, the “GSH [H2S] at peaking time” value was 100.3 µM, the “Cys Peaking time” value amounted to 27 min and the “Cys [H2S] at peaking time” value is 93.9 µM.
For `O=C(NSC(=O)C1CCCCC1)c1ccccc1` [Compound 16], in series [1], the “GSH Peaking time” value came out at 36 min, the “GSH [H2S] at peaking time” value amounted to 81.9 µM, the “Cys Peaking time” value stood at 18 min and the “Cys [H2S] at peaking time” value is 72.4 µM.
`O=C(NSC(=O)c1ccccc1)c1ccc(F)cc1` [Compound 26]: in series [1], the “GSH Peaking time” value amounted to 42 min, the “GSH [H2S] at peaking time” value turned out to be 104.1 µM, the “Cys Peaking time” value is recorded as 34 min and the “Cys [H2S] at peaking time” value turned out to be 110.6 µM.
For the compound `CCCC(=O)SNC(=O)c1ccccc1` [Compound 22], in series [1], the “GSH Peaking time” value was 40 min, the “GSH [H2S] at peaking time” value was 122.3 µM, the “Cys Peaking time” value is reported as 39 min and the “Cys [H2S] at peaking time” value came out at 111.3 µM.
For `COc1ccccc1C(=O)SNC(=O)c1ccccc1` [Compound 9] the same measures were 48 min, 48.3 µM, 36 min and 52.8 µM.
On the same counts, the results for `Cc1ccccc1C(=O)NSC(=O)c1ccccc1` [Compound 24] are 30 min, 130.5 µM, 24 min and 146.9 µM.
Regarding `O=C(NSC(=O)C(c1ccccc1)c1ccccc1)c1ccccc1` [Compound 32], in series [1], the “Cys Peaking time” value is given as 60 min and the “Cys [H2S] at peaking time” value amounted to 45.6 µM.
For the compound `O=C(NSC(=O)C1CCCC1)c1ccccc1` [Compound 17], in series [1], the “GSH Peaking time” value was determined as 32 min, the “GSH [H2S] at peaking time” value amounted to 110.9 µM, the “Cys Peaking time” value amounted to 18 min and the “Cys [H2S] at peaking time” value came out at 100.6 µM.
On the same counts, the results for `O=C(NSC(=O)c1ccc(F)cc1)c1ccccc1` [Compound 3] are 36 min, 122.6 µM, 18 min and 143.1 µM.
`CC(=O)NC(C(=O)NCc1ccccc1)C(C)(C)SSC(=O)c1ccccc1` (centres unmarked) [Compound 34]: the melting point (as a rule, the temperature, or range, at which the solid turns liquid) was 143 to 145 °C. In series [1], the “GSH Peaking time” value was 39 min, the “GSH [H2S] at peaking time” value turned out to be 137 µM, the “Cys Peaking time” value was determined as 33 min and the “Cys [H2S] at peaking time” value stood at 149 µM.
`O=C(NSC(=O)c1cccc(Cl)c1)c1ccccc1` [Compound 5]: in series [1], the “GSH Peaking time” value came out at 36 min, the “GSH [H2S] at peaking time” value was 146.5 µM, the “Cys Peaking time” value is 24 min and the “Cys [H2S] at peaking time” value is 142.1 µM.
